Activity calls are given as the source filed them. The rule behind the calls is not given here.
Experiments:
[1] = system: HCT-116; assay: Cytotoxicity against human HCT116 cells assessed as cell growth inhibition after 48 hrs by sulforhodamine B assay; format: functional, cell-based; conditions: HCT-116, 48 h
[2] = system: HCT-116; assay: Cytotoxicity against human HCT116 cells assessed as cell growth inhibition after 24 hrs by sulforhodamine B assay; format: functional, cell-based; conditions: HCT-116, 24 h
[3] = system: HCT-116; assay: Antiproliferative activity against human HCT116 cells assessed as inhibition of colony formation at 1.77 uM after 14 days by crystal violet-staining based assay; format: functional, cell-based
[4] = system: HCT-116; assay: Antitumor activity against human HCT116 cells xenografted in nude BALB/c mouse assessed as tumor growth inhibition at 20 mg/kg, ip administered daily for 21 days relative to control; format: functional; conditions: HCT-116, ip, 504 h, read-out: TGI
[5] = system: HCT-116; assay: Antitumor activity against human HCT116 cells xenografted in nude BALB/c mouse assessed as tumor growth inhibition at 10 mg/kg, ip administered daily for 21 days relative to control; format: functional; conditions: HCT-116, ip, 504 h, read-out: TGI
[6] = system: HCT-116; assay: Antitumor activity against human HCT116 cells xenografted in nude BALB/c mouse assessed as tumor growth inhibition at 20 mg/kg, ip administered every other day for 21 days relative to control; format: functional; conditions: HCT-116, ip, 504 h, read-out: TGI
[7] = Toxicity in nude BALB/c mouse xenografted with human HCT116 cells assessed as body weight loss at 30 mg/kg, ip administered daily for 3 weeks; format: organism-based; conditions: in vivo, 504 h
[8] = Toxicity in nude BALB/c mouse xenografted with human HCT116 cells assessed as body weight loss at 10 to 20 mg/kg, ip measured on day 10 and 11; format: organism-based; conditions: in vivo
[9] = Toxicity in nude BALB/c mouse xenografted with human HCT116 cells assessed as body weight loss at 40 mg/kg, administered every other day for 21 days; format: organism-based; conditions: in vivo, 504 h
[10] = system: HeLa; assay: Antitumor activity against human HeLa cells xenografted in nude BALB/c mouse assessed as tumor growth inhibition at 30 mg/kg, ip administered every other day for 21 days and observed for 6 days before sacrifice relative to control; format: functional; conditions: read-out: TGI
[11] = system: HeLa; assay: Antitumor activity against human HeLa cells xenografted in nude BALB/c mouse assessed as tumor growth inhibition at 20 mg/kg, ip administered every other day for 21 days and observed for 6 days before sacrifice relative to control; format: functional; conditions: read-out: TGI
[12] = system: HeLa; assay: Antitumor activity against human HeLa cells xenografted in nude BALB/c mouse assessed as tumor growth inhibition at 10 mg/kg, ip administered every other day for 21 days and observed for 6 days before sacrifice relative to control; format: functional; conditions: read-out: TGI
[13] = system: HeLa; assay: Antitumor activity against human HeLa cells xenografted in nude BALB/c mouse assessed as suppression of excised tumor size at 30 mg/kg, ip administered every other day for 21 days and observed for 6 days before sacrifice relative to control; format: functional
[14] = system: HeLa; assay: Antitumor activity against human HeLa cells xenografted in nude BALB/c mouse assessed as suppression of excised tumor size at 20 mg/kg, ip administered every other day for 21 days and observed for 6 days before sacrifice relative to control; format: functional
[15] = system: HeLa; assay: Antitumor activity against human HeLa cells xenografted in nude BALB/c mouse assessed as suppression of excised tumor size at 10 mg/kg, ip administered every other day for 21 days and observed for 6 days before sacrifice relative to control; format: functional
[16] = Toxicity in nude BALB/c mouse xenografted with human HeLa cells assessed as body weight loss at 20 mg/kg, administered every other day for 21 days; format: organism-based; conditions: in vivo, 504 h
[17] = Toxicity in nude BALB/c mouse xenografted with human HeLa cells assessed as body weight loss at 30 mg/kg, administered every other day for 21 days; format: organism-based; conditions: in vivo, 504 h
[18] = system: A-375; assay: Antitumor activity against human A375 cells xenografted in nude BALB/c mouse assessed as tumor growth inhibition at 15 mg/kg, ip administered every other day for 23 days relative to control; format: functional; conditions: A-375, ip, 552 h, read-out: TGI
[19] = system: A-375; assay: Antitumor activity against human A375 cells xenografted in nude BALB/c mouse assessed as tumor growth inhibition at 7.5 mg/kg, ip administered every other day for 23 days relative to control; format: functional; conditions: A-375, ip, 552 h, read-out: TGI
[20] = system: A-375; assay: Antitumor activity against human A375 cells xenografted in nude BALB/c mouse assessed as suppression of tumor volume at 15 mg/kg, ip administered every other day for 23 days relative to control; format: functional; conditions: A-375, ip, 552 h, read-out: TGI
[21] = system: A-375; assay: Antitumor activity against human A375 cells xenografted in nude BALB/c mouse assessed as suppression of tumor volume at 7.5 mg/kg, ip administered every other day for 23 days relative to control; format: functional; conditions: A-375, ip, 552 h, read-out: TGI
[22] = Toxicity in nude BALB/c mouse xenografted with human A375 cells assessed as body weight loss at 15 mg/kg, ip administered every other day for 23 days; format: organism-based; conditions: in vivo, 552 h
[23] = system: HCT-116; assay: Induction of cellular senescence in human HCT116 cells at 0.22 uM after 48 hrs by SA-beta-gal-staining based assay; format: functional, cell-based
[24] = system: HCT-116; assay: Induction of cellular senescence in human HCT116 cells assessed as up-regulation of TP53 gene at 0.22 uM after 48 hrs by qPCR assay; format: functional, cell-based
[25] = system: HCT-116; assay: Induction of cellular senescence in human HCT116 cells assessed as up-regulation of CDKN1A gene at 0.22 uM after 48 hrs by qPCR assay; format: functional, cell-based
[26] = system: HCT-116; assay: Induction of cellular senescence in human HCT116 cells assessed as up-regulation of p21 protein expression at 0.05 to 0.2 ug/ml after 48 hrs by Western blot analysis; format: functional, cell-based
[27] = system: HCT-116; assay: Induction of cellular senescence in human HCT116 cells assessed as up-regulation of p21 protein expression at 0.22 uM after 48 hrs in presence of p21 siRNA by SA-beta-gal-staining based Western blot analysis; format: functional, cell-based
[28] = system: HT-29; assay: Growth inhibition human HT-29 cells after 72 hrs by MTS assay; format: functional, cell-based
[29] = system: HCT-116; assay: Antiproliferative activity against human HCT116 cells xenografted in BALB/c mouse at 20 mg/kg, administered every other day for 3 weeks by Ki67-staining based assay; format: functional, organism-based
[30] = Toxicity in nude BALB/c mouse xenografted with human HCT116 cells assessed as body weight loss at 10 mg/kg, ip administered daily for 3 weeks; format: organism-based; conditions: in vivo, 504 h
[31] = system: HCT-116; assay: Induction of cellular senescence in human HCT116 cells assessed as up-regulation of p16 protein expression at 0.05 to 0.2 ug/ml after 48 hrs by Western blot analysis; format: functional, cell-based
[32] = system: Mus musculus; assay: Induction of cellular senescence in BALB/c mouse xenografted with human HCT116 cells assessed as up-regulation of p21 protein expression at 20 mg/kg, administered every other day for 3 weeks by immunohistochemical analysis; format: functional, organism-based
[33] = system: Mus musculus; assay: Induction of cellular senescence in BALB/c mouse xenografted with human HCT116 cells assessed as up-regulation of p16 protein expression at 20 mg/kg, administered every other day for 3 weeks by immunohistochemical analysis; format: functional, organism-based
[34] = system: Mus musculus; assay: Effect on p27 protein expression in BALB/c mouse xenografted with human HCT116 cells at 20 mg/kg, administered every other day for 3 weeks by immunohistochemical analysis; format: functional, organism-based
[35] = system: HCT-116; assay: Growth inhibition human HCT116 cells after 72 hrs by MTS assay; format: functional, cell-based; conditions: HCT-116, 72 h
[36] = Ratio of IC50 for human HCT116/VM46 cells to IC50 for human HCT116 cells after 72 hrs by MTS assay; format: functional
[37] = Ratio of IC50 for human HCT116/VP35 cells to IC50 for human HCT116 cells after 72 hrs by MTS assay; format: functional
[38] = system: A2780; assay: Growth inhibition human A2780 cells after 72 hrs by MTS assay; format: functional, cell-based; conditions: A2780, 72 h
[39] = Ratio of IC50 for human A2780DDP cells to IC50 for human A2780 cells after 72 hrs by MTS assay; format: functional
[40] = Ratio of IC50 for human A2780/TAX cells to IC50 for human A2780 cells after 72 hrs by MTS assay; format: functional
[41] = system: Panel NCI-60 (60 carcinoma cell lines); assay: Growth inhibition human NCI60 cells after 48 hrs by sulforhodamine B assay; format: functional
[42] = system: A-375; assay: Cytotoxicity against human A375 cells assessed as cell growth inhibition after 48 hrs by sulforhodamine B assay; format: functional, cell-based; conditions: A-375, 48 h
[43] = system: A549; assay: Cytotoxicity against human A549 cells assessed as cell growth inhibition after 48 hrs by sulforhodamine B assay; format: functional, cell-based; conditions: A549, 48 h
[44] = system: HCT-116; assay: Antiproliferative activity against human HCT116 cells assessed as inhibition of colony formation at 0.58 to 2.31 uM after 14 days by crystal violet-staining based assay; format: functional, cell-based
[45] = system: HCT-116; assay: Induction of cellular senescence in human HCT116 cells assessed as up-regulation of p21 protein expression at 0.1 to 0.4 ug/ml after 48 hrs by Western blot analysis; format: functional, cell-based

CC(C)=CCC/C(C)=C/[C@H]1OC(=O)C[C@]12C[C@H](OC(=O)c1ccc(N(C)C)cc1)C=CC2=O
IC50 [1]: 1.69 µM | IC50 [2]: 2.57 µM | Activity [3]: Active | inhibition in vivo at 20 mg/kg [4]: 57.1% | inhibition in vivo at 10 mg/kg [5]: 51% | inhibition in vivo at 20 mg/kg [6]: 40 to 48.3% | Activity [7]: 2 g | Activity [8]: Toxic | Activity [9]: Non-Toxic | inhibition in vivo at 30 mg/kg [10]: 75.9% | inhibition in vivo at 20 mg/kg [11]: 54.7% | inhibition in vivo at 10 mg/kg [12]: 17.2% | Activity [13]: 76.9% | Activity [14]: 55.4% | Activity [15]: 29.6% | Activity [16]: 0.9 g | Activity [17]: 2.2 g | inhibition in vivo at 15 mg/kg [18]: 19.4% | inhibition in vivo at 7.5 mg/kg [19]: 20.6% | inhibition in vivo at 15 mg/kg [20]: 39.4% | inhibition in vivo at 7.5 mg/kg [21]: 39.6% | Activity [22]: 1.5 g | Activity [23]: Active | Activity [24]: Active | Activity [25]: Active | Activity [26]: Active | Activity [27]: inactive | growth inhibition (GI) [28]: Active | Activity [29]: Active | Activity [30]: Non-Toxic | Activity [31]: Active | Activity [32]: Active | Activity [33]: Active | Activity [34]: inactive

COc1cc([C@@H]2c3cc4c(cc3[C@@H](O[C@@H]3O[C@@H]5CO[C@@H](C)O[C@H]5[C@H](O)[C@H]3O)[C@H]3COC(=O)[C@H]23)OCO4)cc(OC)c1O [ETOPOSIDE]
IC50 [35]: 0.41 µM | Ratio IC50 [36]: 13.5 | Ratio IC50 [37]: 7.4 | IC50 [38]: 0.07 µM | Ratio IC50 [39]: 2.5 | Ratio IC50 [40]: 1.7

CC(=O)O[C@@H]1C=CC(=O)[C@@]2(CC(=O)O[C@@H]2/C=C(\C)CCC=C(C)C)C1
GI50 [41]: 0.03 to 4.79 µM | IC50 [1]: 1.97 to 2.7 µM | IC50 [42]: 1.67 µM | IC50 [43]: 6.97 µM | IC50 [2]: 3.94 µM | Activity [44]: Active | Activity [45]: Active
